Measured values from patent US10167262B2, “Herbicidal substituted 3-arylpyrazoles” (FMC CORPORATION, priority 2014, dated 2019).

Tests used:
Type in all cases: in vivo
[1] = system: waterhemp_RES1, (ALS & Triazine resistant common waterhemp, Amaranthus rudis); test: Test E postemergence greenhouse test, plant response rating 0-100; settings: scale 0 to 100
Summary of the method: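 Resistant waterhemp biotypes grown in peat/vermiculite medium and treated postemergence at 2–18 cm height (1- to 4-leaf stage). Kept in greenhouse 14 to 21 days, then visually rated against untreated controls on a 0–100 scale (0 no effect, 100 complete control).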

[2] = system: Italian ryegrass (Lolium multiflorum); test: Test E pre-/postemergence greenhouse test, plant response rating 0-100; settings: Postemergence, scale 0 to 100; for pest or weed control at 31 g/ha / pest or weed control at 62 g/ha / pest or weed control at 125 g/ha / pest or weed control at 250 g/ha / pest or weed control at 500 g/ha: Lolium multiflorum, post-emergence
Summary of the method: (§1)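 Greenhouse pot assay, two application timings. Pre- to silt loam at planting; post- to 1–4-leaf plants. Visual 0–100 score at 14–21 d.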

[3] = system: barnyardgrass (Echinochloa crus-galli); test: as above; settings: Postemergence, scale 0 to 100
Summary of the method: as §1

[4] = Echinochloa crus-galli, post-emergence, 31 g ai/ha
[5] = Echinochloa crus-galli, post-emergence, 62 g ai/ha
[6] = Echinochloa crus-galli, post-emergence, 125 g ai/ha
[7] = Echinochloa crus-galli, post-emergence, 250 g ai/ha
[8] = Echinochloa crus-galli, post-emergence, 500 g ai/ha

**Q.** Which results are given for `CCOC(OCC)(c1ccccc1)c1c[nH]nc1-c1cc(Cl)cc(Cl)c1` [Compound 14, 3-(3,5-dichlorophenyl)-4-(diethoxyphenylmethyl)-1H-pyrazole]?
**A.** Plant response rating, Waterhemp_RES1 ([1]; 31 g ai/ha): 90; Plant response rating, Waterhemp_RES1 ([1]; 62 g ai/ha): 95; Plant response rating, Waterhemp_RES1 ([1]; 125 g ai/ha): 95; Plant response rating, Waterhemp_RES1 ([1]; 250 g ai/ha): 100; Plant response rating, Waterhemp_RES1 ([1]; 500 g ai/ha): 100; pest or weed control at 31 g/ha ([2]; 31 g ai/ha): 0%; pest or weed control at 62 g/ha ([2]; 62 g ai/ha): 0%; pest or weed control at 125 g/ha ([2]; 125 g ai/ha): 0%; pest or weed control at 250 g/ha ([2]; 250 g ai/ha): 0%; pest or weed control at 500 g/ha ([2]; 500 g ai/ha): 0%; pest or weed control at 31 g/ha [3, 4]: 0%; pest or weed control at 62 g/ha [3, 5]: 0%; pest or weed control at 125 g/ha [3, 6]: 0%; pest or weed control at 250 g/ha [3, 7]: 0%; pest or weed control at 500 g/ha [3, 8]: 10%

**Q.** For `Fc1ccc(NN=C(c2ccccc2)c2c[nH]nc2-c2cc(Cl)cc(Cl)c2)cc1` [Compound 35], which “Plant response rating, Ryegrass, Italian” value ([2]; 31 g ai/ha) is on record?
**A.** The value was 0.

**Q.** What about the “Plant response rating, Ryegrass, Italian” value ([2]; 62 g ai/ha) of the same compound?
**A.** Its value is 0.

**Q.** What about the “Plant response rating, Ryegrass, Italian” value ([2]; 125 g ai/ha) of the same compound?
**A.** Its value is 0.

**Q.** What about the “Plant response rating, Ryegrass, Italian” value ([2]; 250 g ai/ha) of the same compound?
**A.** The value was 0.

**Q.** And the “Plant response rating, Ryegrass, Italian” value ([2]; 500 g ai/ha)?
**A.** The value was 0.

**Q.** And the “Plant response rating, Barnyardgrass” value ([3]; 31 g ai/ha)?
**A.** The value was 0.

**Q.** And the “Plant response rating, Barnyardgrass” value ([3]; 62 g ai/ha)?
**A.** The value was 0.

**Q.** And the “Plant response rating, Barnyardgrass” value ([3]; 125 g ai/ha)?
**A.** Its value is 0.

**Q.** What about the “Plant response rating, Barnyardgrass” value ([3]; 250 g ai/ha) of the same compound?
**A.** Its value is 0.

**Q.** What about the “Plant response rating, Barnyardgrass” value ([3]; 500 g ai/ha) of the same compound?
**A.** The value was 0.

**Q.** Which results are given for `Clc1cc(Cl)cc(-c2n[nH]cc2C(=NN2CCCC2)c2ccccc2)c1` [Compound 30, N-[[3-(3,5-dichlorophenyl)-1H-pyrazol-4-yl]phenylmethylene]-1-pyrrolidinamine]?
**A.** pest or weed control at 31 g/ha ([2]; 31 g ai/ha): 0%; pest or weed control at 62 g/ha ([2]; 62 g ai/ha): 0%; pest or weed control at 125 g/ha ([2]; 125 g ai/ha): 0%; pest or weed control at 250 g/ha ([2]; 250 g ai/ha): 5%; pest or weed control at 16 g/ha ([3]; Echinochloa crus-galli, post-emergence, 16 g ai/ha): 0%; pest or weed control at 31 g/ha [3, 4]: 0%; pest or weed control at 62 g/ha [3, 5]: 0%; pest or weed control at 125 g/ha [3, 6]: 0%; pest or weed control at 250 g/ha [3, 7]: 0%

**Q.** How did the pest or weed control at 31 g/ha ([2]; 31 g ai/ha) turn out when `CCCn1cc(C(=O)c2ccccc2)c(-c2cc(Cl)cc(Cl)c2)n1` [Compound 61, [3-(3,5-dichlorophenyl)-1-propyl-1H-pyrazol-4-yl]phenylmethanone] was run?
**A.** Its pest or weed control at 31 g/ha is 0%.

**Q.** What about the pest or weed control at 62 g/ha ([2]; 62 g ai/ha) of the same compound?
**A.** Its pest or weed control at 62 g/ha is 0%.

**Q.** What about the pest or weed control at 125 g/ha ([2]; 125 g ai/ha) of the same compound?
**A.** Its pest or weed control at 125 g/ha is 0%.

**Q.** And the pest or weed control at 250 g/ha ([2]; 250 g ai/ha)?
**A.** The pest or weed control at 250 g/ha was 0%.

**Q.** And the pest or weed control at 500 g/ha ([2]; 500 g ai/ha)?
**A.** Its pest or weed control at 500 g/ha is 0%.

**Q.** What about the pest or weed control at 31 g/ha [3, 4] of the same compound?
**A.** Its pest or weed control at 31 g/ha is 0%.

**Q.** What about the pest or weed control at 62 g/ha [3, 5] of the same compound?
**A.** Its pest or weed control at 62 g/ha is 0%.

**Q.** What about the pest or weed control at 125 g/ha [3, 6] of the same compound?
**A.** The pest or weed control at 125 g/ha was 0%.

**Q.** What about the pest or weed control at 250 g/ha [3, 7] of the same compound?
**A.** The pest or weed control at 250 g/ha was 10%.

**Q.** What about the pest or weed control at 500 g/ha [3, 8] of the same compound?
**A.** Its pest or weed control at 500 g/ha is 20%.
